Reference: PMC11653243, “Enhancing Phototoxicity in BODIPY‐Perylene Charge Transfer Dyads by Combined Iodination and Mesylation” (Chemistry (Weinheim an Der Bergstrasse, Germany), 2024)
Where “and” joins values, the source holds several entries; their conditions need not be identical. Equal values may be shown once.

Assays:
[1] = tested on: MCF‐7 spheroids; test: Spheroid phototoxicity, 470 nm LED, CellTiter-Glo 3D; type: cell-based; settings: MCF‐7 3D (spheroids); for IC50: Homo sapiens, MCF7, light or radiation study, 470 nm LED, 5±0.54 J/cm^2 (2.2 mW/cm^2 for 0.5 h); for Photo Index (PI), ratio of dark IC50 to light IC50: 5 J/cm^2, 470 nm LED
Description: 3D Cell Studies: Toxicity Assays
Spheroids were seeded in a clear BIOFLOAT™ round bottom 96 well plate (Sarstedt) at 2x10^4 cells per well, centrifuged using the […] for 5 minutes at 700 rpm and allowed to grow and compact for 96 hours. A 2X concentrated solution of B2P, B2PI, MB2P or MB2PI was added in a 1:1 ratio (BODIPY:media) to each well of the 96 well plate, which contained 50 µL phenol red free media, and incubated for 24 h. Prior to irradiation 90% of the media/Ru solution was removed, replaced with fresh phenol red media to dilute the remaining BODIPY (multiple dilution steps, more required for 15 µM and above), and brought to a total volume of 100 µL. Phototoxicity studies in […] spheroids were performed as per the cell monolayer protocol with an irradiation dose of 5 J/cm2 using a 470 nm LED.
Control studies with untreated spheroids confirmed 17 J/cm2 irradiation dose was toxic to spheroids, however the spheroids remained viable after 5 J/cm2 irradiation. CellTiter-Glo 3D cell viability assay (Promega) was used to assess spheroid viability and performed as per the manufacturer’s protocol, where the CellTiter-Glo 3D reagent was added to the spheroid wells

[2] = DPBF singlet oxygen (ROS) scavenger assay in methanol; settings: 470 nm LED, t=210 seconds relative to t=0, 10 mM DPBF in methanol, absorbance matched
Description: Given the impact of the heavy iodine atom on phototoxicity, to confirm if the origin of toxicity is triplet sensitised formation of ^1O2 we carried out ROS scavenger studies with 1,3‐diphenylisobenzofuran (DPBF, Figure 6C). Stock solutions of BODIPY‐perylene were prepared under absorbance matched conditions and a BODIPY‐DPBF solution prepared at concentration of 10 mM DPBF in methanol. The BODIPY‐DPBF solution was irradiated (470 nm) from 0–210 seconds and the absorption spectra recorded every 30 seconds. In the presence of ^1O2, DPBF forms an unstable peroxide, endoperoxide 1, that readily decomposes to colourless 1,2‐dibenzoylbenzene (DBB).[51] This change is detected spectrophotometrically with depletion of DPBF absorbance at 410 nm. The DPBF assay results are represented in Figure 6C as % decrease in absorbance at 410 nm. The values are determined at t=210 seconds relative to the absorbance values recorded prior to irradiation at t=0. […] As expected, the most phototoxic compound, MB2PI, generates the most ^1O2 upon irradiation with a 470 nm LED with a 52 % decrease in DPBF absorbance at 410 nm. […] DPBF is known to be sensitive to light, therefore, to mitigate photodegradation of affecting the assay results, exposure was limited to 3.5 minutes where DPBF absorbance decrease at 410 nm is <10 % at this time point. […] Due to the photo‐vulnerability of DPBF under visible irradiation, this study is limited by a short experimental window and ignores any ROS generation over longer irradiation periods. […]
Figure 6 ROS dye H2DCFDA (A) prior to irradiation and (B) after 5 minutes of continuous irradiation confirming ROS generation. […] A graph of ROS scavenger DPBF response to irradiation of the BODIPY‐perylene compounds is shown in (C) where a decrease in absorbance at 410 nm confirms ^1O2 generation upon photoactivation. Studies were performed with the BODIPY‐perylene compounds under absorbance matched conditions. Values shown indicate the % decrease in absorbance values recorded at t=0 and t=210 seconds and is reported as mean±standard deviation. […]
To assess singlet oxygen (1O2) production and determine if the phototoxicity of our BODIPY complexes was caused by the generation of reactive oxygen species (ROS), a 1O2 scavenger study was completed using 1,3-diphenylisobenzofuran (DPBF). A 20 mM solution of DPBF in methanol was prepared, and stocks of the BODIPY-perylene compounds in DMSO were prepared under absorbance matched concentrations, starting at a 30 µM concentration of each. Test solutions of 1:1, DPBF: BODIPY in methanol (final concentration of 10 mM DPBF) were added to a clear 96 well plate (Nunc) and absorbance was measured using a BMG LABTECH CLARIOstar plate reader. […]

SMILES | IC50 [1] | Photo Index (PI), ratio of dark IC50 to light IC50 [1] | decrease in DPBF absorbance at 410 nm [2]
CC1=C(I)C(C)=[N+]2C1=C(c1ccccc1)c1c(C)c(-c3ccc4c5cccc6cccc(c7cccc3c74)c65)c(C)n1[B-]2(F)F [B2PI] | 7.65 µM | 5.7 | 31%
CC1=CC(C)=[N+]2C1=C(c1ccccc1)c1c(C)c(-c3ccc4c5cccc6cccc(c7cccc3c74)c65)c(C)n1[B-]2(F)F [B2P] | 6.91 µM | 6.6 | 8%
CC1=C(c2ccc3c4cccc5cccc(c6cccc2c63)c54)C(C)=[N+]2C1=C(c1c(C)cc(C)cc1C)c1c(C)c(I)c(C)n1[B-]2(F)F [MB2PI] | 5.62 µM | > 8.9 and > 8 | 52%
CC1=C(c2ccc3c4cccc5cccc(c6cccc2c63)c54)C(C)=[N+]2C1=C(c1c(C)cc(C)cc1C)c1c(C)cc(C)n1[B-]2(F)F [MB2P] | 6.26 µM | > 8 | 6%
